From the supplement of paper PMC10307832

Assays:
Experiment in all cases: relative viability (nuclei count vs DMSO), 5 days (fraction); higher = more cells survive
[1] = compound: C(C(=O)C(=O)O)Br [Bromopyruvate] + O=C(CCCCCCC(=O)Nc1ccccc1)NO [Vorinostat] (partner 1 µM)
In short: (§1)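 Relative viability was taken as the ratio of nuclei in treated wells to nuclei in vehicle wells. Lung cancer cell lines in 1536-well plates received compounds by pin tool one day after seeding, either one drug alone or a fixed anchor-drug dose plus five library-drug doses (not always all listed) in √10 steps. Nuclei were counted on 4× images after 5 days of treatment, and values are medians of duplicate plates.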

[2] = compound: CC(O)(CS(=O)(=O)c1ccc(F)cc1)C(=O)Nc1ccc(C#N)c(C(F)(F)F)c1 [Bicalutamide] + CC1(C)CCC(c2ccc(Cl)cc2)=C(CN2CCN(c3ccc(C(=O)NS(=O)(=O)c4ccc(N[C@H](CCN5CCOCC5)CSc5ccccc5)c(S(=O)(=O)C(F)(F)F)c4)cc3)CC2)C1 [Navitoclax] (partner 0.5 µM)
In short: as §1

[3] = compound: C(C(=O)C(=O)O)Br [Bromopyruvate] + COc1cccc2cc(-c3nc([C@H]4CC[C@H](C(=O)O)CC4)n4ncnc(N)c34)[nH]c12 [OSI-027] (partner 0.5 µM)
In short: as §1

[4] = compound: CC(O)(CS(=O)(=O)c1ccc(F)cc1)C(=O)Nc1ccc(C#N)c(C(F)(F)F)c1 [Bicalutamide] + C[C@]1(O)C[C@@H](c2nc(-c3ccc4ccc(-c5ccccc5)nc4c3)c3c(N)nccn32)C1 [Linsitinib] (partner 1 µM)
In short: as §1

| Cell Line | relative viability ([1]; first compound 1 µM) | relative viability ([1]; first compound 3.162 µM) | relative viability ([1]; first compound 10 µM) | relative viability ([1]; first compound 31.62 µM) | relative viability ([1]; first compound 100 µM) | relative viability ([2]; first compound 0.08 µM) | relative viability ([2]; first compound 0.253 µM) | relative viability ([2]; first compound 0.8 µM) | relative viability ([2]; first compound 2.53 µM) | relative viability ([3]; first compound 1 µM) | relative viability ([3]; first compound 3.162 µM) | relative viability ([3]; first compound 10 µM) | relative viability ([3]; first compound 31.62 µM) | relative viability ([3]; first compound 100 µM) | relative viability ([4]; first compound 0.08 µM) | relative viability ([4]; first compound 0.253 µM) | relative viability ([4]; first compound 0.8 µM) | relative viability ([4]; first compound 2.53 µM) |
| --- | --- | --- | --- | --- | --- | --- | --- | --- | --- | --- | --- | --- | --- | --- | --- | --- | --- | --- |
| NCI-H2023 | 0.547 | 0.687 | 0.619 | 0.464 | 0.615 | 1.08 | 1.04 | 1.06 | 0.945 | 0.391 | 0.39 | 0.49 | 0.388 | 0.374 | 0.721 | 0.723 | 0.597 | 0.715 |
| NCI-H2085 | 0.769 | 0.81 | 0.798 | 0.764 | 0.862 | 1.19 | 1.17 | 1.22 | 0.902 | 0.794 | 0.931 | 0.798 | 0.726 | 0.797 | 0.856 | 1.04 | 0.938 | 0.794 |
| NCI-H2087 | 0.814 | 0.551 | 0.751 | 0.528 | 0.375 | 1.15 | 1.09 | 1.1 | 0.974 | 0.55 | 0.612 | 0.637 | 0.542 | 0.462 | 1.03 | 1.07 | 0.95 | 0.77 |
| NCI-H2126 | 0.82 | 0.832 | 0.886 | 0.829 | 0.639 | 0.929 | 0.806 | 0.873 | 0.847 | 0.756 | 0.707 | 0.65 | 0.668 | 0.824 | 0.737 | 0.724 | 0.731 | 0.68 |
| NCI-H2228 | 0.454 | 0.723 | 0.764 | 0.581 | 0.372 | 0.636 | 0.863 | 0.856 | 0.959 | 0.539 | 0.554 | 0.755 | 0.518 | 0.551 | 0.627 | 0.573 | 0.824 | 0.957 |
| NCI-H2347 | 0.645 | 0.541 | 0.542 | 0.495 | 0.473 | 0.853 | 0.795 | 0.848 | 0.774 | 0.453 | 0.401 | 0.379 | 0.357 | 0.375 | 1.1 | 0.944 | 1.02 | 0.934 |
| NCI-H2405 | 1.35 | 1.01 | 0.814 |  | 0.742 | 0.948 | 0.816 | 0.987 | 0.925 | 0.585 | 0.659 | 0.634 | 0.556 | 0.663 | 0.897 | 0.873 | 1.06 | 0.901 |
| NCI-H3122 | 1.05 | 0.991 | 1.11 | 0.829 | 0.718 | 0.991 | 1.01 | 1.02 | 1.03 | 0.914 | 1.13 | 1.27 | 0.964 | 1.06 | 1.01 | 1.04 | 1.04 | 1.07 |
| PC-3 [JPC-3] | 1.1 |  | 0.536 |  | 0.764 | 0.867 | 0.775 | 0.869 | 0.91 | 0.814 | 0.77 | 0.709 | 0.783 | 0.735 | 0.927 | 1.02 | 0.986 | 1.02 |
| PC-14 | 0.755 | 0.706 | 0.587 | 0.516 | 0.482 | 0.948 | 0.944 | 1.02 | 1.08 | 0.788 | 0.837 | 1.37 | 0.825 | 0.841 | 0.968 | 0.967 | 0.976 | 1.04 |
| RERF-LC-KJ | 0.707 | 0.655 | 0.673 | 0.626 | 0.516 | 0.951 | 0.98 | 0.793 | 0.799 | 0.614 | 0.607 | 0.6 | 0.516 | 0.54 | 0.868 | 0.85 | 0.94 | 0.904 |
| SK-LU-1 | 0.744 | 0.81 | 0.728 | 0.632 | 0.713 | 1.04 | 1.04 | 1.38 | 0.902 | 0.378 | 0.316 | 0.303 | 0.317 | 0.305 | 1.24 | 1.29 | 1.17 | 0.817 |
| SK-MES-1 | 1.08 | 1.2 | 1.04 | 0.94 | 0.965 | 1.13 | 1.19 | 1.26 | 1.17 | 0.654 | 0.552 | 0.667 | 0.603 | 0.68 | 1.14 | 1.07 | 1.07 | 1.04 |
| SW 1573 | 0.799 | 0.861 | 0.924 | 0.478 | 0.0513 | 0.908 | 0.914 | 1.17 | 1.16 | 0.751 | 0.674 | 0.73 | 0.475 | 0.0547 | 0.834 | 0.647 | 0.887 | 0.647 |
